The subject of data set [1] is UT189. Kind of data set: Copper mediated cytotoxicity assay, wild type strain. The data set is classed as cell-based, E. coli. The note with it: for effect on viability: 20 μM alone, no copper; for effect on copper (II) sulfate toxicity: exogenous addition of 20 μM. As for the experimental part: (§1) Following overnight growth in 50 mL M63 minimal media, bacterial cultures were washed twice in phosphate buffered saline (PBS, Sigma) and centrifuged at 6,500 rpm. Washed cultures were resuspended in fresh M63 minimal media, and normalized to 10^8 CFU/mL for subsequent treatment. Normalized cultures were treated with varying concentrations of copper (II) sulfate and test agent in 2 mL reaction volumes in 6-well tissue culture plates. Samples were incubated for 20 hours at 37° C. with shaking. Bacterial viability was reported as the number of colony forming units per milliliter of the reaction volume post-treatment (CFU/mL).

Data set [2] is described as follows: Free copper (I) determination with bathocuproine. The note with it: for reduction of copper (II) to copper (I): 20 μM reductant, 17.5 μM copper (II) sulfate. The protocol: Free copper (I) was determined spectrophotometrically using the copper (I) indicator bathocuproine. Briefly, 25 μM bathocuproine, 25 μM apo-yersiniabactin, and 17.5 μM copper (II) sulfate, were used in combination in order-of-addition experiments, as well as alone as controls in PBS. Either 20 μM enterobactin (Sigma) or its catecholate moiety, 2,3-dihydroxybenzoic acid (DHB) were added as bioreductants. Following a 30 minute room temperature incubation, 25 μM bathocuproine was added and copper (I) levels were determined by measuring the visible absorbance at 480 nm of the cuprous-bathocuproine complex. Final concentrations of copper (I) were determined by comparison to a standard curve.

Data set [3] can be described thus: Superoxide dismutase (SOD) activity, xanthine/xanthine oxidase WST-1 formazan assay. The format is biochemical. The conditions noted are these: for superoxide dismutase activity (in words) / SOD activity, percentage inhibition rate: WST-formazan assay, no added protein; for superoxide dismutase activity in the presence of protein: 1.0 mg/mL bovine serum albumin. The protocol:
Reduction of WST-1 was monitored at 440 nm in a final volume of 100 μL. One unit of activity was defined as the amount of compound which blocked 50% WST-1 reduction under these conditions. […] To determine whether SOD activity is retained in the presence of protein, these experiments were repeated in the presence of 1.0 mg/mL bovine serum albumin (Sigma).
For orientation: Tetrazolium dyes change colour on reduction, which living cells bring about.

Data set [4] relates to yersiniabactin biosynthesis. The experiment in a line: Inhibition of yersiniabactin biosynthesis in a urinary pathogenic E. coli strain. The format is cell-based. From the text:
(§2) The ability of PAS to inhibit yersiniabactin biosynthesis in a urinary pathogenic E. coli strain was examined.

Data set [5] relates to urinary pathogenic E. coli strain. The experiment in a line: In vitro growth of urinary pathogenic E. coli strain. The format is cell-based. The conditions noted are these: at levels that inhibit yersiniabactin biosynthesis.
Text: as §2

For data set [6], the system named is UTI89ΔybtS. Kind of data set: Copper mediated cytotoxicity assay, yersiniabactin-deficient strain. The format is cell-based, E. coli. As for the experimental part: as §1
Data set [7] has as its system RAW264.7 macrophages. The note with it: 25 mM DPI, data not shown.
In data set [8] the test system is E. coli clinical isolates. The experiment in a line: Antimicrobial susceptibility of clinical isolates by disk diffusion. The data set is classed as cell-based. The note with it: for resistant clinical isolates: 337 bacteriuric inpatient clinical isolates. An excerpt: The samples were collected as part of a Washington University Institutional Review Board-approved prospective study of patients with E. coli bacteriuria (>5×10^4 colony forming units per milliliter) described by Marschall et al.^11 Strains without associated blood culture data were not excluded from this study. Briefly, clinical isolates were collected from male and female patients with significant bacteriuria. Bacterial DNA was extracted using a QIAamp DNA mini kit (Qiagen, Valencia, Calif.). DNA probes for virulence genes were conducted as previously described^11, and the presence of these genes was determined by dot-blot hybridization using a microarray system as described elsewhere (Table 1). E. coli phylogenetic group was determined from hybridization results using the triple genotyping method of Clermont et al.^25 Antimicrobial susceptibility was determined using disk diffusion tests. Bacteriuria was defined as? 5×10^4 colony forming units (CFU)/mL in non-catheterized patients and ≧5×10^3 CFU/mL in catheterized patients, as well as by using the patients' documented urinary symptoms. Pyelonephritis was defined as the presence of flank pain and tenderness and/or fever; sepsis and sepsis-induced hypotension were defined using established clinical criteria. The Microbiology Laboratory at Barnes Jewish Hospital provided clinical antibiogram data.

Data set [9] in a line: UV-Vis spectroscopy of metal interaction. The conditions noted are these: purified HPTT with Fe (III) and Cu (II). The data set is classed as physicochemical. An excerpt:
At this point, it had been confirmed that HPTT is detectable in vivo in a model UPEC strain that makes yersiniabactin. FIG. 24 confirms that HPTT is detected in wildtype UT189 but not UT189 strains comprising deletions in the yersiniabactin synthesis pathway (ybtS and ybtE). Given that HPTT is being secreted outside the cell and that it is made in relatively high abundance, we wanted to see if HPTT could be performing a specific function for the bacteria, and not simply a transient intermediate along the way to Ybt (FIG. 24). Given that its structure is similar to yersiniabactin, a siderophore, we hypothesized that it could interact with metals. Using solid phase extraction and HPLC, HPTT was purified to homogeneity with no contaminants, as detectable by HPLC. The purified compound was used to look for interactions with iron and copper by UV-Vis spectroscopy.

Experimental findings from patent publication US9551021B2, “Methods and compositions for detecting pathogenic bacteria” (Washington University, priority 2012, dated 2017) are described below.

Entries after “also recorded” stand apart in the source; their conditions may differ. Bounds are passed on as bounds.

As to `O=C(N[C@H]1COC(=O)[C@@H](NC(=O)c2cccc(O)c2O)COC(=O)[C@@H](NC(=O)c2cccc(O)c2O)COC1=O)c1cccc(O)c1O` [enterobactin], in [1], the effect on viability entry was “minimal effect” and the “effect on copper (II) sulfate toxicity” value is on record as “enhances copper (II) sulfate toxicity”. In addition, the “reduction of copper (II) to copper (I)” value in [2] is listed as 84.7%.

On to “bovine Cu/Zn SOD: bovine Cu/Zn superoxide dismutase used as a standard (Sigma S-7571)”, for which the “superoxide dismutase activity (in words)” value in data set [3] was “completely inhibited superoxide anion formation”.

Turning to `Nc1ccc(C(=O)O)c(O)c1` [PAS, Para-aminosalicylic acid], the “inhibition of yersiniabactin biosynthesis” value in data set [4] is “selectively inhibits yersiniabactin biosynthesis”. In addition, the “inhibition of in vitro growth” value in data set [5] was “did not inhibit in vitro growth; also recorded: without inhibiting growth”.

On to `O=S(=O)([O-])[O-].[Cu+2]` [copper sulfate, copper (II) sulfate], for which, in [3], the “superoxide dismutase activity in the presence of protein” value is “suppressed”; the “SOD activity, percentage inhibition rate” value was 33.8%; the “superoxide dismutase activity (in words)” value was “did not demonstrate any superoxide dismutase like activity”. Further, the “decrease in bacterial viability” value in data set [6] (10 μM copper sulfate alone) was more than 3 log CFU/mL. Moreover, in [1] (10 μM copper (II) sulfate alone), the “reduction of viable colonies” value is recorded as 2.5 log.

For the compound `c1ccc2c(c1)[I+]c1ccccc1-2` [DPI, Diphenyleneiodonium], in [7], the oxidative-burst activity result is reported as “decreased oxidative-burst activity to background levels” and the phagocytosis entry is “without any gross defect in phagocytosis”.

On to `CC(C)(C1=N[C@@](C)(C(=O)O)CS1)[C@H](O)[C@@H]1CSC([C@H]2CSC(c3ccccc3O)=N2)[N-]1.[Fe]` (stereo partly drawn) [ferric complexes of yersiniabactin], for which, in data set [3], the “SOD activity, percentage inhibition rate” value turned out to be 41.4% and the “superoxide dismutase activity (in words)” value is on record as “demonstrated SOD-like activity”.

Take `[Cl][Fe]([Cl])[Cl]` [ferric chloride]: in data set [3], the “superoxide dismutase activity (in words)” value is recorded as “did not demonstrate any superoxide dismutase like activity”.

As for trimethoprim-sulfamethoxazole [TMP/S], the resistant clinical isolates in data set [8] is 29%; in data set [8] (listed as trimethoprim/sulfamethoxazole (TMP/S)) it was 96 (29) total (%). The susceptibility result in data set [8] (fyuA+iroN siderophore genotype (CI community 3, BC 1+3)) was “highly susceptible”. The “association with phenotypic resistance” value in data set [8] (fyuA+iucD strategists (CI community 2, BC 1+2)) is on record as “moderately with TMP/S resistance”.

Take `O=C(O)c1cccc(O)c1O` [DHB, 2,3-dihydroxybenzoic acid]: in data set [1], the effect on viability entry was “minimal effect” and the “effect on copper (II) sulfate toxicity” value is “enhances copper (II) sulfate toxicity”. Besides, the “reduction of copper (II) to copper (I)” value in data set [2] came to 93.1%.

Regarding “hydroxphenyl-thiazolinyl-thaizolinyl [HPTT]”, in [9], the “UV-Vis spectra in the presence of metal” value is “red-shifted”.

Take copper (II)-salicylate: in [3], the “superoxide dismutase activity in the presence of protein” value is “suppressed; also recorded: quenched” and the “SOD activity, percentage inhibition rate” value was found to be 61.6%.

On to `CC(C)(C1=N[C@@](C)(C(=O)O)CS1)[C@H](O)[C@@H]1CSC([C@H]2CSC(c3ccccc3O)=N2)N1` (stereo partly drawn) [apo-yersiniabactin], for which, in [3], the “superoxide dismutase activity (in words)” value was “did not demonstrate superoxide dismutase activity and not”. In addition, in data set [6] (added in 1.5-fold molar excess over copper (II) sulfate), the “cytoprotection from copper toxicity” value is “restores growth to untreated wild type levels”. In [6] (in the absence of copper), the “effect on bacterial viability” value is recorded as “negligible effect”. The “decrease in viable cells compared to wild type” value in data set [6] (purified apo-Ybt added with 10 μM copper sulfate) was determined as 0.024 log. Moreover, the “copper (I) bathocuproine signal” value in [2] (apo-Ybt added before enterobactin or DHB, listed as Apo-yersiniabactin) was “prevents catechol-dependent reduction”; in data set [2] (apo-Ybt added before enterobactin or DHB, listed as apo-Ybt) it was “almost completely blocked”; in [2] (enterobactin or DHB added before apo-Ybt), “restored the copper (I) signal”.
